Patent US10322999B2, “Oxindoles derivatives, preparation method thereof and pharmaceutical compositions for the prevention or treatment of cancer containing the same as an active ingredient” (RESEARCH & BUSINESS FOUNDATION SUNGKYUNKWAN UNIVERSITY, priority 2017, dated 2019)

Legend:
[1] = system: human breast cancer cell line (MCF-7); assay: MTT assay, growth inhibition of MCF-7 cells; assay type: cell-based; conditions: MCF7, MTT, 48 hours incubation, MCF-7, read-out: MCF-7 (IC50)
Procedure: (§1) To evaluate the anticancer activity of the oxindole derivatives produced and analyzed in examples 1 to 8, MTT assay was performed to confirm the growth inhibitory effect on cancer cells. More specifically, human prostate adenocarcinoma cell line (LNCaP), human breast cancer cell line (MCF-7), human ovarian cancer cell line (SKOV3), human lung cancer cell line […] and human renal adenocarcinoma cell line (786-O) were cultured in DMEM medium supplemented with 1% penicillin/streptomycin and 10% fetal bovine serum (All from Life Technologies, Grand Island, N.Y.). Cells were seeded in 96-well plates (3×10^3 cells/well) containing 100 μL of growth medium for 24 hours. After the medium was removed, 100 μL of each of the different analogues (dissolved in DMSO to 0.025% or less) was added to each well and cultured at 37° C. for 48 hours. After 48 hours of incubation, 100 μL of MTT reagent was added to each well. After incubation at 37° C. for 4 hours, the supernatant was aspirated, and the formazan crystals were dissolved in 100 μL of DMSO at 37° C. for 10 minutes with gentle stirring. Absorbance per well was measured at 540 nm using a VERSA max microplate reader (Molecular Devices Corp.). IC50 values were defined as compound concentrations that inhibited cell proliferation by 50% compared to cells treated with the highest amount of DMSO (0.025%) and were considered to be 100% viability.

[2] = system: human prostate adenocarcinoma cell line (LNCaP); assay: MTT assay, growth inhibition of LNCaP cells; assay type: cell-based; conditions: Homo sapiens; MTT, 48 hours incubation, LNCaP; read-out: LNCaP (IC50)
Procedure: as §1

[3] = system: human renal adenocarcinoma cell line (786-O); assay: MTT assay, growth inhibition of 786-O cells; assay type: cell-based; conditions: Homo sapiens, 786-0; MTT, 48 hours incubation, 786-O; read-out: 786-O (IC50)
Procedure: as §1

[4] = system: human ovarian cancer cell line (SKOV3); assay: MTT assay, growth inhibition of SKOV3 cells; assay type: cell-based; conditions: SK-OV-3, MTT, 48 hours incubation, SKOV3, read-out: SKOV3 (IC50)
Procedure: as §1

all carcinomas = assay: MTT assay, summary over all five cancer cell lines; assay type: cell-based, human; conditions: summary of Table 3, all five cell lines
Procedure: as §1

[5] = system: human lung cancer cell line (A459); assay: MTT assay, growth inhibition of A549 cells; assay type: cell-based; conditions: Homo sapiens; MTT, 48 hours incubation, A549; read-out: A549 (IC50)
Procedure: as §1

Compound: CCc1ccccc1NN1C(=O)C(CC(=O)NCc2ccccc2)c2cccc(CC)c21 (stereo not drawn) [4c, N-Benzyl-2-(7-ethyl-1-((2-ethylphenyl)amino)-2-oxoindolin-3-yl)acetamide]
- IC50 [1]: 16.6 µM
- IC50 [2]: 12.2 µM
- IC50 [3]: 10.5 µM
- IC50 [4]: 20.3 µM
- inhibitory activity against all carcinomas (in words) (all carcinomas): excellent
- IC50 [5]: 28.9 µM

Compound: CCc1ccccc1NN1C(=O)C(CC(=O)Nc2ccccc2)c2cccc(CC)c21 (stereo not drawn) [4g, 2-(7-Ethyl-1-((2-ethylphenyl)amino)-2-oxoindolin-3-yl)-N-phenylacetamide]
- IC50 [1]: 9.6 µM
- IC50 [2]: 6 µM
- IC50 [3]: 4.8 µM
- IC50 [4]: 13.8 µM
- inhibitory activity against all carcinomas (in words) (all carcinomas): excellent
- IC50 [5]: 16.8 µM

Compound: CCCCOC(=O)CC1C(=O)N(Nc2ccccc2CC)c2c(CC)cccc21 (stereo not drawn) [6b, Butyl 2-(7-ethyl-1-((2-ethylphenyl)amino)-2-oxoindolin-3-yl)acetate]
- IC50 [1]: 14.7 µM
- IC50 [2]: 13.9 µM
- IC50 [3]: 12.2 µM
- IC50 [4]: 15.1 µM
- inhibitory activity against all carcinomas (in words) (all carcinomas): excellent
- IC50 [5]: 17.6 µM

Compound: CCc1ccccc1NN1C(=O)C(CC(=O)OCC(C)C)c2cccc(CC)c21 (stereo not drawn) [6d, Isobutyl 2-(7-ethyl-1-((2-ethylphenyl)amino)-2-oxoindolin-3-yl)acetate]
- IC50 [1]: 14.2 µM
- IC50 [2]: 12.5 µM
- IC50 [3]: 12.6 µM
- IC50 [4]: 14.5 µM
- inhibitory activity against all carcinomas (in words) (all carcinomas): excellent
- IC50 [5]: 22.5 µM

Compound: CCCCOC(=O)c1[nH]c2cc(CC)ccc2c1C(=O)OCCCC [7a, Dibutyl 6-ethyl-1H-indole-2,3-dicarboxylate]
- IC50 [1]: 20.6 µM
- IC50 [2]: 14.5 µM
- IC50 [3]: 13.2 µM
- IC50 [4]: 22.1 µM
- inhibitory activity against all carcinomas (in words) (all carcinomas): excellent
- IC50 [5]: 24.4 µM
